Source: PubChem BioAssay AID330 (DTP/NCI, 2004)
Several values for one entry are separate records, joined by “and”; a condition that tells them apart may be missing. Equal entries are not always repeated. Inconclusive results and toxic doses are left out. Bridge positions count the residues as written; N and C are the ends. Peptide text beside a SMILES is read from it.

System: P388 leukemia ip, CD2F1 mice, survival T/C
Assay: NCI In Vivo Anticancer Drug Screen. Data for tumor model P388 Leukemia (intraperitoneal) in CD2F1 (CDF1) mice
Settings: endpoint: median survival time, higher = longer survival
In short: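 Mice carrying the transplanted tumor received test compound or vehicle. Survival was recorded in each group, and the value is the treated-group measurement divided by that of the vehicle-treated control group.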

[1] = dose: 100.0 mg/kg/injection, schedule: Q01DX009 (ip), vehicle: Klucel (hydroxypropylcellulose) (HPC)
[2] = dose: 200.0 mg/kg/injection, schedule: Q01DX009 (ip), vehicle: Klucel (hydroxypropylcellulose) (HPC)
[3] = dose: 50.0 mg/kg/injection, schedule: Q01DX009 (ip), vehicle: saline with Tween-80
[4] = dose: 100.0 mg/kg/injection, schedule: Q01DX009 (ip), vehicle: saline with Tween-80
[5] = dose: 200.0 mg/kg/injection, schedule: Q01DX009 (ip), vehicle: saline with Tween-80
[6] = dose: 60.0 mg/kg/injection, schedule: Q01DX005 (ip), vehicle: Klucel (hydroxypropylcellulose) (HPC)

For `COc1ccc(NS(=O)(=O)c2ccc(N=Cc3c4ccccc4nc4ccccc34)cc2)nn1`, the T/C (dose: 12.5 mg/kg/injection, schedule: Q04DX002 (ip), vehicle: Klucel (hydroxypropylcellulose) (HPC)) was 96 % of control, the T/C (dose: 25.0 mg/kg/injection, schedule: Q04DX002 (ip), vehicle: Klucel (hydroxypropylcellulose) (HPC)) was 96 % of control and the T/C (dose: 50.0 mg/kg/injection, schedule: Q04DX002 (ip), vehicle: Klucel (hydroxypropylcellulose) (HPC)) was 89 % of control. For the same compound, the T/C (dose: 100.0 mg/kg/injection, schedule: Q04DX002 (ip), vehicle: Klucel (hydroxypropylcellulose) (HPC)) was 96 % of control, the T/C (dose: 200.0 mg/kg/injection, schedule: Q04DX002 (ip), vehicle: Klucel (hydroxypropylcellulose) (HPC)) was 89 % of control and the T/C (dose: 400.0 mg/kg/injection, schedule: Q04DX002 (ip), vehicle: Klucel (hydroxypropylcellulose) (HPC)) was 89 % of control.
In the case of `Cc1cc(C)c(SSc2nnnn2-c2ccccc2)c(C)c1`, the T/C (dose: 50.0 mg/kg/injection, schedule: Q01DX009 (ip), vehicle: Klucel (hydroxypropylcellulose) (HPC)) is reported as 108 % of control, the T/C [1] is reported as 103 % of control and the T/C [2] is reported as 94 % of control.
In the case of `COc1cc2ccc(/C=C/C(=O)c3ccc4c(c3)OCO4)cc2cc1OC`, the T/C (dose: 25.0 mg/kg/injection, schedule: Q01DX009 (ip), vehicle: water) is reported as 103 % of control, the T/C (dose: 50.0 mg/kg/injection, schedule: Q01DX009 (ip), vehicle: water) is reported as 98 % of control and the T/C (dose: 100.0 mg/kg/injection, schedule: Q01DX009 (ip), vehicle: water) is reported as 97 % of control. The T/C (dose: 200.0 mg/kg/injection, schedule: Q01DX009 (ip), vehicle: water) was 98 % of control and the T/C (dose: 400.0 mg/kg/injection, schedule: Q01DX009 (ip), vehicle: water) was 91 % of control.
With `COc1ccc(C(=O)CC(=O)C(=O)Nc2ccc(Cl)cc2)cc1` the T/C (dose: 50.0 mg/kg/injection, schedule: Q01DX005 (ip), vehicle: saline with Tween-80) was 103 % of control, the T/C (dose: 100.0 mg/kg/injection, schedule: Q01DX005 (ip), vehicle: saline with Tween-80) was 101 % of control and the T/C (dose: 200.0 mg/kg/injection, schedule: Q01DX005 (ip), vehicle: saline with Tween-80) was 109 % of control.
In the case of `O=C1NC(c2ccccc2)(c2ccccc2)C(=O)N1CCS`, the T/C (dose: 25.0 mg/kg/injection, schedule: Q04DX003 (ip), vehicle: Klucel (hydroxypropylcellulose) (HPC)) is reported as 99 % of control and 106 % of control, the T/C (dose: 50.0 mg/kg/injection, schedule: Q04DX003 (ip), vehicle: Klucel (hydroxypropylcellulose) (HPC)) is reported as 100 % of control and the T/C (dose: 100.0 mg/kg/injection, schedule: Q04DX003 (ip), vehicle: Klucel (hydroxypropylcellulose) (HPC)) is reported as 100 % of control and 114 % of control. The T/C (dose: 200.0 mg/kg/injection, schedule: Q04DX003 (ip), vehicle: Klucel (hydroxypropylcellulose) (HPC)) was 104 % of control and 108 % of control and the T/C (dose: 400.0 mg/kg/injection, schedule: Q04DX003 (ip), vehicle: Klucel (hydroxypropylcellulose) (HPC)) was 112 % of control and 114 % of control.
With `CC(=O)OC(C)(C)/C=C/C(=O)[C@](C)(O)[C@H]1[C@H](O)C[C@@]2(C)[C@@H]3CC=C4[C@@H](C=C(O)C(=O)C4(C)C)[C@]3(C)C(=O)C[C@]12C` the T/C (dose: 0.25 mg/kg/injection, schedule: Q01DX009 (ip), vehicle: saline with Tween-80) was 87 % of control, the T/C (dose: 1.0 mg/kg/injection, schedule: Q01DX009 (ip), vehicle: saline with Tween-80) was 91 % of control and the T/C (dose: 1.0 mg/kg/injection, schedule: Q01DX009 (ip), vehicle: saline) was 93 % of control. The T/C (dose: 2.0 mg/kg/injection, schedule: Q01DX009 (ip), vehicle: saline with Tween-80) was 91 % of control, the T/C (dose: 2.0 mg/kg/injection, schedule: Q01DX009 (ip), vehicle: saline) was 94 % of control and the T/C (dose: 4.0 mg/kg/injection, schedule: Q01DX009 (ip), vehicle: saline with Tween-80) was 91 % of control. The T/C (dose: 4.0 mg/kg/injection, schedule: Q01DX009 (ip), vehicle: saline) was 93 % of control and the T/C (dose: 8.0 mg/kg/injection, schedule: Q01DX009 (ip), vehicle: saline) was 93 % of control.
In the case of `CCOC(=O)c1[nH]c2ccc(O)c3c2c1CCC3=O`, the T/C [3] is reported as 92 % of control, the T/C [4] is reported as 88 % of control and the T/C [5] is reported as 94 % of control.
In the case of `CC(C)(C)/C(=N\NC(=O)CCCl)c1ccccc1`, the T/C [3] is reported as 97 % of control, the T/C [4] is reported as 97 % of control and the T/C [5] is reported as 95 % of control.
For `COc1cccc2c1C(=O)c1c(O)c3c(c(O)c1C2=O)C[C@@](O)(/C(C)=N/NC(=O)c1cccs1)C[C@@H]3OC1CC(N)C(O)C(C)O1` (some centres undefined), the T/C (dose: 1.56 mg/kg/injection, schedule: Q04DX003 (ip), vehicle: saline) was 169 % of control, the T/C (dose: 3.13 mg/kg/injection, schedule: Q04DX003 (ip), vehicle: saline) was 178 % of control and the T/C (dose: 6.25 mg/kg/injection, schedule: Q04DX003 (ip), vehicle: saline) was 191 % of control. For the same compound, the T/C (dose: 12.5 mg/kg/injection, schedule: Q04DX003 (ip), vehicle: saline) was 206 % of control and the T/C (dose: 25.0 mg/kg/injection, schedule: Q04DX003 (ip), vehicle: saline) was 104 % of control.
In the case of `BrCC[N+]12CC[N+](CCBr)(CC1)C2`, the T/C (dose: 6.25 mg/kg/injection, schedule: Q01DX009 (ip), vehicle: saline) is reported as 114 % of control, the T/C (dose: 12.5 mg/kg/injection, schedule: Q01DX009 (ip), vehicle: saline) is reported as 116 % of control and the T/C (dose: 50.0 mg/kg/injection, schedule: Q01DX009 (ip), vehicle: saline) is reported as 203 % of control and 110 % of control and 121 % of control. For the same compound, the T/C (dose: 50.0 mg/kg/injection, schedule: Q04DX003 (ip), vehicle: water) was 101 % of control, the T/C (dose: 100.0 mg/kg/injection, schedule: Q01DX009 (ip), vehicle: saline) was 202 % of control and 115 % of control and 118 % of control and the T/C (dose: 100.0 mg/kg/injection, schedule: Q04DX003 (ip), vehicle: water) was 108 % of control. For the same compound, the T/C (dose: 200.0 mg/kg/injection, schedule: Q01DX009 (ip), vehicle: saline) was 114 % of control and the T/C (dose: 400.0 mg/kg/injection, schedule: Q04DX003 (ip), vehicle: water) was 173 % of control.
`C[n+]1c(/C=C/c2ccccc2Cl)ccc2ccccc21` was tested, and the T/C (dose: 12.5 mg/kg/injection, schedule: Q01DX009 (ip), vehicle: saline with Tween-80) was 94 % of control, the T/C (dose: 25.0 mg/kg/injection, schedule: Q01DX009 (ip), vehicle: saline with Tween-80) was 100 % of control and the T/C [3] was 94 % of control.
With `Cn1cc(C2=C(Cl)C(=O)N(c3cc(Cl)cc(Cl)c3)C2=O)c(=O)n(C)c1=O` the T/C (dose: 15.0 mg/kg/injection, schedule: Q01DX005 (ip), vehicle: Klucel (hydroxypropylcellulose) (HPC)) was 99 % of control, the T/C (dose: 30.0 mg/kg/injection, schedule: Q01DX005 (ip), vehicle: Klucel (hydroxypropylcellulose) (HPC)) was 99 % of control and the T/C [6] was 111 % of control.
For `CCO/C=C1\N=C(C(O)(c2ccc(Cl)cc2)c2ccc(Cl)cc2)OC1=O`, the T/C [6] was 95 % of control, the T/C (dose: 120.0 mg/kg/injection, schedule: Q01DX005 (ip), vehicle: Klucel (hydroxypropylcellulose) (HPC)) was 92 % of control and the T/C (dose: 240.0 mg/kg/injection, schedule: Q01DX005 (ip), vehicle: Klucel (hydroxypropylcellulose) (HPC)) was 98 % of control.
With `c1cc[n+]2cc3cc4c(cc3cc2c1)OCO4` the T/C (dose: 3.13 mg/kg/injection, schedule: Q01DX009 (ip), vehicle: distilled water + Tween-80) was 103 % of control and 107 % of control, the T/C (dose: 6.25 mg/kg/injection, schedule: Q01DX009 (ip), vehicle: distilled water + Tween-80) was 119 % of control and 123 % of control and the T/C (dose: 25.0 mg/kg/injection, schedule: Q01DX009 (ip), vehicle: distilled water + Tween-80) was 120 % of control and 94 % of control.
`O=C(O)c1c(O)ccc(O)c1C(=O)O` was tested, and the T/C (dose: 60.0 mg/kg/injection, schedule: Q01DX005 (ip), vehicle: saline with Tween-80) was 101 % of control, the T/C (dose: 120.0 mg/kg/injection, schedule: Q01DX005 (ip), vehicle: saline with Tween-80) was 92 % of control and the T/C (dose: 240.0 mg/kg/injection, schedule: Q01DX005 (ip), vehicle: saline with Tween-80) was 97 % of control.
With `CCC(C)C1NC(=O)C(CC(C)C)NC(=O)C(C(C)C)NC(=O)C2CSSCC(NC1=O)C(=O)N2` (centres undefined) (cyclo(CCVLI); disulfide 1-2; configuration not given here) the T/C (dose: 31.25 micrograms/kg/injection, schedule: Q01DX009 (ip), vehicle: Klucel (hydroxypropylcellulose) (HPC)) was 106 % of control, the T/C (dose: 62.5 micrograms/kg/injection, schedule: Q01DX009 (ip), vehicle: Klucel (hydroxypropylcellulose) (HPC)) was 100 % of control and the T/C (dose: 125.0 micrograms/kg/injection, schedule: Q01DX009 (ip), vehicle: Klucel (hydroxypropylcellulose) (HPC)) was 94 % of control. For the same compound, the T/C (dose: 250.0 micrograms/kg/injection, schedule: Q01DX009 (ip), vehicle: Klucel (hydroxypropylcellulose) (HPC)) was 97 % of control, the T/C (dose: 500.0 micrograms/kg/injection, schedule: Q01DX009 (ip), vehicle: Klucel (hydroxypropylcellulose) (HPC)) was 99 % of control and the T/C (dose: 1000.0 micrograms/kg/injection, schedule: Q01DX009 (ip), vehicle: Klucel (hydroxypropylcellulose) (HPC)) was 97 % of control.
With `CCN(CCO)CCc1cccc2ccccc12` the T/C (dose: 50.0 mg/kg/injection, schedule: Q01DX005 (ip), vehicle: Klucel (hydroxypropylcellulose) (HPC)) was 104 % of control and the T/C (dose: 100.0 mg/kg/injection, schedule: Q01DX005 (ip), vehicle: Klucel (hydroxypropylcellulose) (HPC)) was 99 % of control.
`NOCc1ccccc1` was tested, and the T/C [1] was 93 % of control and the T/C [2] was 86 % of control.
